Source: ChEMBL document CHEMBL1156642, “Discovery of betamethasone 17alpha-carbamates as dissociated glucocorticoid receptor modulators in the rat” (Bioorg Med Chem, 2008)
Active and inactive are the calls of the source. The calls are words filed in the database; no cut-off is given here.

Columns and labels:
Rattus norvegicus [1] = test: Effect on plasma triglyceride level in Zucker fatty rat at 30 mg/kg, after 5 days
Rattus norvegicus [2] = test: Effect on thymus weight in Lewis rat with implanted cotton pellets at 5.0 mg/kg, po bid; assay type: functional
Rattus norvegicus [3] = test: Effect on body weight change in Lewis rat with implanted cotton pellets at 10 mg/kg, po bid for 4 days; assay type: functional
Rattus norvegicus [4] = species on record: Rattus norvegicus; test: Transactivation activity of glutamine synthase in rat skeletal muscle cells relative to Dexamethasone; assay type: cell-based
Progesterone receptor = molecular target: T1, Progesterone receptor (Homo sapiens, UniProt P06401); test: Inhibition of human progesterone receptor
T1 sequence (P06401 whole entry): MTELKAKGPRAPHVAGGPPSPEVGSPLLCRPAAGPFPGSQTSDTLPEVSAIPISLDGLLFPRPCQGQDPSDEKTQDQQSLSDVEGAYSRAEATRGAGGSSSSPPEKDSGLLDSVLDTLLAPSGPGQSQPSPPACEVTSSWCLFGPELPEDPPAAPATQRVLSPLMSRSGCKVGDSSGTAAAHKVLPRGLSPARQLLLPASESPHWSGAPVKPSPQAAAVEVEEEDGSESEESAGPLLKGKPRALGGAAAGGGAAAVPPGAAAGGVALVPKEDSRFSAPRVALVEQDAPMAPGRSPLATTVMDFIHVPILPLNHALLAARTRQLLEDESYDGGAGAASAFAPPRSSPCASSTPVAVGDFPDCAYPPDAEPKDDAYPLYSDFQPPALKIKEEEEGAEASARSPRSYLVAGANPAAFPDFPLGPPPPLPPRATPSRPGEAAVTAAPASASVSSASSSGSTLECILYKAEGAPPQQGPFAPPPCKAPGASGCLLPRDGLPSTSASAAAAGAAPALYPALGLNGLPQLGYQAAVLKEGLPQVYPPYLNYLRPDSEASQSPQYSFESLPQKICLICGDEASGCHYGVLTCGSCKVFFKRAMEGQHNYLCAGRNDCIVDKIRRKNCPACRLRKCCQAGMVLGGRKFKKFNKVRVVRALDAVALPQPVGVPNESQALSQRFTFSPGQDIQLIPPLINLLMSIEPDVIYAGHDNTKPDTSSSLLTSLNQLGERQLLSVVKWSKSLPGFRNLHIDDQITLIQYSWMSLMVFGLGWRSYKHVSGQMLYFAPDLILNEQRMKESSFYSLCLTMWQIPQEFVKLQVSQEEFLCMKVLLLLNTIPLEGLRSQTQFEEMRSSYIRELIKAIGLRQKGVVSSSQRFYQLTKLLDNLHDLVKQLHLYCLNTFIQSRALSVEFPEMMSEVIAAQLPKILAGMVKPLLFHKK

Rattus norvegicus [5] = test: Inhibition of granuloma formation in cotton pellet implanted Lewis rat at 10 mg/kg, po bid; assay type: functional
Rattus norvegicus [6] = test: Effect on adrenal weight in Lewis rat with implanted cotton pellets at 10 mg/kg, po bid; assay type: functional
Rattus norvegicus [7] = test: Effect on body weight change in Lewis rat with implanted cotton pellets at 5.0 mg/kg, po bid for 7 days; assay type: functional
Glucocorticoid receptor = molecular target: T2, Glucocorticoid receptor (Homo sapiens, UniProt P04150)
T2 sequence (P04150 whole entry): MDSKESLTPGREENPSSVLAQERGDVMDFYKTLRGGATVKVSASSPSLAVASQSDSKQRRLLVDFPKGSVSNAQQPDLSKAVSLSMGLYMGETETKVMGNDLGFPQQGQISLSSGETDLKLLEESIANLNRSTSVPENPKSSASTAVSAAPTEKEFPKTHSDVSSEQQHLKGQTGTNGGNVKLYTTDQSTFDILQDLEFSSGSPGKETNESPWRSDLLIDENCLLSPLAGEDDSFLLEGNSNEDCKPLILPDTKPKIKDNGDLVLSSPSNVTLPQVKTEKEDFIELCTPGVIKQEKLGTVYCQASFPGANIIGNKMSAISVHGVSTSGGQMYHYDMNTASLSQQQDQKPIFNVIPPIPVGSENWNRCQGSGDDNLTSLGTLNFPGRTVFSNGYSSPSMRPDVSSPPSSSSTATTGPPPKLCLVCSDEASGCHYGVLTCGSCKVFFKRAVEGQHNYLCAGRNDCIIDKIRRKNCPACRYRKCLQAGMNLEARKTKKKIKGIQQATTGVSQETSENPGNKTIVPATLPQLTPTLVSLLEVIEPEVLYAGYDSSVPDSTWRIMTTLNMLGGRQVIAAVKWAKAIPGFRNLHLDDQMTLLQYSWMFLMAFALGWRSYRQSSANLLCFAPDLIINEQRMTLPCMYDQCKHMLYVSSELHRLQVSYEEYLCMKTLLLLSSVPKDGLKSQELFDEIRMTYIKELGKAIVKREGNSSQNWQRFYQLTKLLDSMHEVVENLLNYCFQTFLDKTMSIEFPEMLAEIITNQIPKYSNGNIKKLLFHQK
Description: Inhibition of human glucocorticoid receptor

Rattus norvegicus [8] = test: Inhibition of granuloma formation in cotton pellet implanted Lewis rat at 19 mg/kg, po bid; assay type: functional
Rattus norvegicus [9] = test: Effect on adrenal weight in Lewis rat with implanted cotton pellets at 5.0 mg/kg, po bid; assay type: functional
[10] = Volume of distribution at steady state in rat; assay type: ADME, organism-based; settings: in vivo, read-out: Vdss
Rattus norvegicus [11] = test: Effect on adrenal weight in Lewis rat with implanted cotton pellets at 19 mg/kg, po bid; assay type: functional
[12] = molecular target: T3, Interstitial collagenase (Homo sapiens) (UniProt P03956); test: Inhibition of glucocorticoid-mediated human MMP1 expression in PMA stimulated A549 cells assessed as MMP1 protein level by ELISA relative to Dexamethasone; assay type: cell-based; parameters: scale not given: the % may be the effect or the level left
T3 sequence (whole entry): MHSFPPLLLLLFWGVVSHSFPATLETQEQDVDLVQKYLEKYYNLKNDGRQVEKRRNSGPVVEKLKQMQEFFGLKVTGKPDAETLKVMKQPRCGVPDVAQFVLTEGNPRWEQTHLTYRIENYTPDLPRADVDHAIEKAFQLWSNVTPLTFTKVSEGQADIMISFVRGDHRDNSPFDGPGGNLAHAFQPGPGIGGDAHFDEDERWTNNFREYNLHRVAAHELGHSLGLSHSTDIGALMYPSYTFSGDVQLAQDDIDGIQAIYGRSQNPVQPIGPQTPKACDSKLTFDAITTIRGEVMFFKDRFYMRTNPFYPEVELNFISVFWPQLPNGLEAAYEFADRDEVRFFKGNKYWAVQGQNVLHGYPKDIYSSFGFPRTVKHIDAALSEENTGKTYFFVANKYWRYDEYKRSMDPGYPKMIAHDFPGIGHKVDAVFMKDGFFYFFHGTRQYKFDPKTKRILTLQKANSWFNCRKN

Rattus norvegicus [13] = test: Effect on body weight change in Lewis rat with implanted cotton pellets at 19 mg/kg, po bid for 7 days; assay type: functional
Rattus norvegicus [14] = test: Effect on spleen weight in Lewis rat with implanted cotton pellets at 10 mg/kg, po bid; assay type: functional
Rattus norvegicus [15] = test: Effect on body weight change in Lewis rat with implanted cotton pellets at 10 mg/kg, po bid for 7 days; assay type: functional
Rattus norvegicus [16] = test: Effect on plasma glucose level in nonfasted Zucker fatty rat at 30 mg/kg, after 5 days
[17] = Oral bioavailability in rat; assay type: ADME, organism-based; settings: in vivo
Rattus norvegicus [18] = test: Effect on body weight change in Lewis rat with implanted cotton pellets at 19 mg/kg, po bid for 4 days; assay type: functional
Rattus norvegicus [19] = test: Effect on thymus weight in Lewis rat with implanted cotton pellets at 10 mg/kg, po bid; assay type: functional
Rattus norvegicus [20] = test: Effect on body weight change in Zucker fatty rat at 30 mg/kg, after 5 days
Rattus norvegicus [21] = test: Effect on body weight change in Lewis rat with implanted cotton pellets at 5.0 mg/kg, po bid for 4 days; assay type: functional
Rattus norvegicus [22] = test: Effect on spleen weight in Lewis rat with implanted cotton pellets at 19 mg/kg, po bid; assay type: functional
Rattus norvegicus [23] = test: Effect on spleen weight in Lewis rat with implanted cotton pellets at 5.0 mg/kg, po bid; assay type: functional
Rattus norvegicus [24] = test: Inhibition of granuloma formation in cotton pellet implanted Lewis rat at 5.0 mg/kg, po bid; assay type: functional
[25] = Half life in rat; assay type: ADME, organism-based; settings: in vivo
[26] = Plasma clearance in rat; assay type: ADME, organism-based
Rattus norvegicus [27] = test: Effect on plasma insulin level in Zucker fatty rat at 30 mg/kg, after 5 days
Mus musculus = species on record: Mus musculus; test: Inhibition of LPS-induced TNFalpha production in mouse; assay type: functional
Rattus norvegicus [28] = test: Effect on thymus weight in Lewis rat with implanted cotton pellets at 19 mg/kg, po bid; assay type: functional
Rattus norvegicus [29] = test: Effect on adrenal weight in Lewis rat with implanted cotton pellets at 1.0 mg/kg, po bid; assay type: functional
Rattus norvegicus [30] = test: Effect on adrenal weight in Lewis rat with implanted cotton pellets at 6.0 mg/kg, po bid; assay type: functional
Rattus norvegicus [31] = test: Effect on thymus weight in Lewis rat with implanted cotton pellets at 1.0 mg/kg, po bid; assay type: functional
Rattus norvegicus [32] = test: Effect on body weight change in Lewis rat with implanted cotton pellets at 6.0 mg/kg, po bid for 7 days; assay type: functional
Rattus norvegicus [33] = test: Inhibition of granuloma formation in cotton pellet implanted Lewis rat at 1.0 mg/kg, po bid; assay type: functional
Rattus norvegicus [34] = test: Effect on spleen weight in Lewis rat with implanted cotton pellets at 1.0 mg/kg, po bid; assay type: functional
Rattus norvegicus [35] = test: Effect on body weight change in Lewis rat with implanted cotton pellets at 2.5 mg/kg, po bid for 7 days; assay type: functional
Rattus norvegicus [36] = test: Effect on body weight change in Lewis rat with implanted cotton pellets at 1.0 mg/kg, po bid for 7 days; assay type: functional
Rattus norvegicus [37] = test: Inhibition of granuloma formation in cotton pellet implanted Lewis rat at 2.5 mg/kg, po bid; assay type: functional
Rattus norvegicus [38] = test: Effect on spleen weight in Lewis rat with implanted cotton pellets at 2.5 mg/kg, po bid; assay type: functional
Rattus norvegicus [39] = test: Effect on body weight change in Lewis rat with implanted cotton pellets at 2.5 mg/kg, po bid for 4 days; assay type: functional
Rattus norvegicus [40] = test: Effect on thymus weight in Lewis rat with implanted cotton pellets at 2.5 mg/kg, po bid; assay type: functional
Rattus norvegicus [41] = test: Effect on body weight change in Lewis rat with implanted cotton pellets at 6.0 mg/kg, po bid for 4 days; assay type: functional
Rattus norvegicus [42] = test: Effect on body weight change in Lewis rat with implanted cotton pellets at 1.0 mg/kg, po bid for 4 days; assay type: functional
Rattus norvegicus [43] = test: Effect on adrenal weight in Lewis rat with implanted cotton pellets at 2.5 mg/kg, po bid; assay type: functional
Rattus norvegicus [44] = test: Inhibition of granuloma formation in cotton pellet implanted Lewis rat at 6.0 mg/kg, po bid; assay type: functional
Rattus norvegicus [45] = test: Effect on spleen weight in Lewis rat with implanted cotton pellets at 6.0 mg/kg, po bid; assay type: functional
Rattus norvegicus [46] = test: Effect on thymus weight in Lewis rat with implanted cotton pellets at 6.0 mg/kg, po bid; assay type: functional

Structure (SMILES): CCNC(=O)O[C@]1(C(=O)CO)[C@@H](C)C[C@H]2[C@@H]3CCC4=CC(=O)C=C[C@]4(C)[C@@]3(F)[C@@H](O)C[C@@]21C
- Activity (Rattus norvegicus [1]): Active
- Activity (Rattus norvegicus [2]): 170.7 mg
- Activity (Rattus norvegicus [3]): 7.3 g
- Activity (Rattus norvegicus [4]): 23.4%
- IC50 (Progesterone receptor): > 1000 nM
- inhibition in vivo at 10 mg/kg (Rattus norvegicus [5]): 33.5%
- Activity (Rattus norvegicus [6]): 36.8 mg
- Activity (Rattus norvegicus [7]): 11 g
- IC50 (Glucocorticoid receptor): 5.1 nM
- inhibition in vivo at 19 mg/kg (Rattus norvegicus [8]): 44.6%
- Activity (Rattus norvegicus [9]): 39 mg
- Vd [10]: 3.22 L/kg
- Activity (Rattus norvegicus [11]): 30.8 mg
- Activity [12]: 104%
- Activity (Rattus norvegicus [13]): 7.5 g
- Activity (Rattus norvegicus [14]): 311.2 mg
- Activity (Rattus norvegicus [15]): 10 g
- Activity (Rattus norvegicus [16]): Active
- bioavailability [17]: 43%
- Activity (Rattus norvegicus [18]): 5.6 g
- Activity (Rattus norvegicus [19]): 144.9 mg
- Activity (Rattus norvegicus [20]): Active
- Activity (Rattus norvegicus [21]): 5.9 g
- Activity (Rattus norvegicus [22]): 305.3 mg
- Activity (Rattus norvegicus [23]): 330.9 mg
- inhibition in vivo at 5 mg/kg (Rattus norvegicus [24]): 35.6%
- half-life [25]: 2.2 h
- clearance [26]: 26 mL/min/kg
- Activity (Rattus norvegicus [27]): Active
- ED50 (Mus musculus): 0.1 mg/kg
- Activity (Rattus norvegicus [28]): 119.9 mg

Structure (SMILES): C[C@]12C=CC(=O)C=C1CC[C@@H]1[C@@H]2[C@@H](O)C[C@@]2(C)[C@H]1CC[C@]2(O)C(=O)CO [PREDNISOLONE]
- Activity (Rattus norvegicus [29]): 38.7 mg
- Activity (Rattus norvegicus [30]): 27.9 mg
- Activity (Rattus norvegicus [31]): 219.5 mg
- Activity (Rattus norvegicus [32]): -4.1 g
- inhibition in vivo at 1 mg/kg (Rattus norvegicus [33]): 37.6%
- Activity (Rattus norvegicus [34]): 334.7 mg
- Activity (Rattus norvegicus [35]): -0.4 g
- Activity (Rattus norvegicus [36]): 3 g
- inhibition in vivo at 2.5 mg/kg (Rattus norvegicus [37]): 49.3%
- Activity (Rattus norvegicus [38]): 266.8 mg
- Activity (Rattus norvegicus [39]): -1 g
- Activity (Rattus norvegicus [40]): 117.8 mg
- Activity (Rattus norvegicus [41]): -3.6 g
- Activity (Rattus norvegicus [42]): 1.5 g
- Activity (Rattus norvegicus [43]): 26.9 mg
- inhibition in vivo at 6 mg/kg (Rattus norvegicus [44]): 56.2%
- Activity (Rattus norvegicus [45]): 260 mg
- ED50 (Mus musculus): 0.5 mg/kg
- Activity (Rattus norvegicus [46]): 104 mg
